The first assay has as its system AGS cells (KRAS^G12D). Put plainly: Detection of cell proliferation in vitro by MTT/MTS method (cell activity experiment). Type of assay: cell-based. As to conditions: AGS cells; MTT/MTS; 3 days of drug treatment; read-out: AGS IC50. The method in brief:
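KRAS G12D AGS cells seeded at 1000 per well, compound added 24 h later, 0.5% final DMSO. Viability read after 3 days of treatment by MTT (solubilised in DMSO) or MTS, 4 h, absorbance 490 nm. IC50 from dose–response curves versus DMSO control.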
(Tetrazolium dyes change colour on reduction, which living cells bring about.)
For the compound `CCC1CCCc2cc(O)cc(-c3ccc4c(N5C[C@H]6CC[C@@H](C5)N6)nc(OC[C@@]56CCCN5C[C@H](F)C6)nc4c3F)c21` (single isomer, unassigned) [Example 290], the 50% inhibitory concentration (IC50) came to 3410 nM. On to `C#Cc1c(F)ccc2cc(O)cc(-c3ccc4c(N5C[C@H]6CC[C@@H](C5)C6[S+](C)[O-])nc(OC[C@@]56CCCN5C[C@H](F)C6)nc4c3F)c12` (stereo partly drawn) [Example 130, 5-ethynyl-6-fluoro-4-(8-fluoro-2-(((2R,7aS)-2-fluorotetrahydro-1H-pyrrolizin-7a(5H)-yl)methoxy)-4-((1R,5S, 8R)-8-(methylsulfinyl)-3-azabicyclo[3.2.1]octan-3-yl)quinazolin-7-yl)naphthalen-2-ol], for which the IC50 was more than 2500 nM.

The assay is the same for the next values; noted with them: Homo sapiens, AGS, 72 h, AGS cells; MTT/MTS; 3 days of drug treatment; read-out: AGS IC50.
Turning to `O=C1CCc2cc(O)cc(-c3ncc4c(N5C[C@H]6CC[C@@H](C5)N6)nc(OC[C@@]56CCCN5C[C@H](F)C6)nc4c3F)c21` [Example 250, 7-(4-((1R,5S)-3,8-diazabicyclo[3.2.1]octan-3-yl)-8-fluoro-2-(((2R,7aS)-2-fluorotetrahydro-1H-pyrrolizin-7a(5H)-yl)methoxy)pyrido[4,3-d]pyrimidin-7-yl)-5-hydroxy-2,3-dihydro-1H-inden-1-one], the IC50 is more than 2500 nM. As to `C#Cc1c(F)ccc2cc(O)cc(-c3ncc4c(N5C[C@H]6CC[C@@H](C5)S6(=O)=O)nc(OC[C@@]56CCCN5C[C@H](F)C6)nc4c3F)c12` [Example 23, (1R,5S)-3-(7-(8-ethynyl-7-fluoro-3-hydroxynaphthalen-1-yl)-8-fluoro-2-(((2R, 7aS)-2-fluorotetrahydro-1H-pyrrolizin-7a(5H)-yl)methoxy)pyrido[4,3-d]pyrimidin-4-yl)-8-thia-3-azabicyclo[3.2.1] octane 8,8-dioxide], the IC50 came to 6950 nM. The same measure, in the same setting: with `Oc1cc2c(c(-c3ncc4c(N5C[C@H]6CC[C@@H](C5)N6)nc(OC[C@@]56CCCN5C[C@H](F)C6)nc4c3F)c1)C(CF)CCC2` (stereo partly drawn) [Example 262, 4-(4-((1R,5S)-3,8-diazabicyclo[3.2.1]octan-3-yl)-8-fluoro-2-(((2R,7aS)-2-fluorotetrahydro-1H-pyrrolizin-7a(5H)-yl)methoxy)pyrido[4,3-d]pyrimidin-7-yl)-5-(fluoromethyl)-5,6,7,8-tetrahydronaphthalen-2-ol] the figure was 305 nM; with `C#Cc1c(F)ccc2cc(O)cc(-c3ccc4c(N5C[C@H]6CC[C@@H](C5)S6(=O)=O)nc(OC[C@@]56CCCN5C[C@H](F)C6)nc4c3F)c12` [Example 160, (1R,5S)-3-(7-(8-ethynyl-7-fluoro-3-hydroxynaphthalen-1-yl)-8-fluoro-2-(((2R,7aS)-2-fluorotetrahydro-1H-pyrrolizin-7a(5H)-yl)methoxy)quinazolin-4-yl)-8-thia-3-azabicyclo[3.2.1]octane 8,8-dioxide], more than 2500 nM.

Consider `CCc1cccc2cc(O)cc(-c3ncc4c(C5C[C@H]6CC[C@@H](C5)N6)nc(OC[C@@]56CCCN5C[C@H](F)C6)nc4c3F)c12` (stereo partly drawn) [Example 81, 4-(4-((1R,5S)-8-azabicyclo[3.2.1]octan-3-yl)-8-fluoro-2-(((2R,7aS)-2-fluorotetrahydro-1H-pyrrolizin-7a(5H)-yl)methoxy)pyrido [4,3-d]pyrimidin-7-yl)-5-ethylnaphthalen-2-ol], for which the IC50 is more than 2500 nM. Consider `Nc1cc2ccccc2c(-c2ncc3c(N4C[C@H]5CC[C@@H](C4)N5)nc(OCC4(CN5CCCC5)CC4)nc3c2F)n1` [Example 7, 1-(4-((1R,5S)-3,8-diazabicyclo[3.2.1]octan-3-yl)-8-fluoro-2-((1-(pyrrolidin-1-ylmethyl)cyclopropyl)methoxy)pyrido[4,3-d]pyrimidin-7-yl)isoquinolin-3-amine], for which the IC50 amounted to 2580 nM. With `CCc1c(F)ccc2cc(O)cc(-c3ncc4c(N5CC6CCC(C5)C6F)nc(OC[C@@]56CCCN5C[C@H](F)C6)nc4c3F)c12` (stereo partly drawn) [Example 35, 5-ethyl-6-fluoro-4-(8-fluoro-4-((1R,5S,8R)-8-fluoro-3-azabicyclo [3.2.1]octan-3-yl)-2-(((2R,7aS)-- fluorotetrahydro-1H-pyrrolizin-7a(5H)-yl)methoxy)pyrido[4,3-d]pyrimidin-7-yl) naphthalen-2-ol], the IC50 is more than 2500 nM. Regarding `C#Cc1c(F)ccc2cc(O)cc(-c3ccc4c(N5CC6CCC(N6)C5=O)nc(OC[C@@]56CCCN5C[C@H](F)C6)nc4c3F)c12` (stereo partly drawn) [Example 214, 3-(7-(8-ethynyl-7-fluoro-3-hydroxynaphthalen-1-yl)-8-fluoro-2-(((2R,7aS)-2-fluorotetrahydro-1H-pyrrolizin-7a(5H)-yl)methoxy)quinazolin-4-yl)-3,8-diazabicyclo[3.2.1]octan-2-one], the IC50 is more than 10000 nM. Regarding `Cc1cc(N)nc(-c2ncc3c(N4C[C@H]5CC[C@@H](C4)N5)nc(OCC4(CN5CCCC5)CC4)nc3c2F)c1C(F)(F)F` [Example 8, 6-(4-((1R,5S)-3,8-diazabicyclo[3.2.1]octan-3-yl)-8-fluoro-2-((1-(pyrrolidin-1-ylmethyl)cyclopropyl)methoxy)pyrido[4,3-d]pyrimidin-7-yl)-4-methyl-5-(trifluoromethyl) pyridin-2-amine], the IC50 was more than 1000 nM. Same read-out and setting: with `CCc1c(F)ccc2cc(O)cc(-c3ccc4c(N5C[C@H]6CC[C@@H](C5)N6)nc(OC[C@@]56CCCN5C[C@H](F)C6)nc4c3F)c12` [Example 92, 4-(4-((1R,5S)-3,8-diazabicyclo[3.2.1]octan-3-yl)-8-fluoro-2-(((2R,7aS)-2-fluorotetrahydro-1H-pyrrolizin-7a(5H)-yl)methoxy)quinazolin-7-yl)-5-ethyl-6-fluoronaphthalen-2-ol] the figure was 2.7 nM. Regarding `C#Cc1c(F)ccc2cc(O)cc(-c3ccc4c(N5CCC(C#N)CC5)nc(OC[C@@]56CCCN5C[C@H](F)C6)nc4c3F)c12` [Example 133, 1-(7-(8-ethynyl-7-fluoro-3-hydroxynaphthalen-1-yl)-8-fluoro-2-(((2R, 7aS)-2-fluorotetrahydro-1H-pyrrolizin-7a(5H)-yl)methoxy)quinazolin-4-yl)piperidine-4-carbonitrile], the IC50 was more than 2500 nM.

Turning to `OCC1CCc2cc(O)cc(-c3ncc4c(N5C[C@H]6CC[C@@H](C5)N6)nc(OC[C@@]56CCCN5C[C@H](F)C6)nc4c3F)c21` (stereo partly drawn) [Example 265, 7-(4-((1R,5S)-3,8-diazabicyclo[3.2.1]octan-3-yl)-8-fluoro-2-(((2R,7aS)-2-fluorotetrahydro-1H-pyrrolizin-7a(5H)-yl)methoxy)pyrido[4,3-d]pyrimidin-7-yl)-1-(hydroxymethyl)-2,3-dihydro-1H-inden-5-ol], the IC50 was more than 10000 nM. Consider `C#Cc1c(F)ccc2cc(O)cc(-c3ncc4c(N5CCC(C#N)CC5)nc(OC[C@@]56CCCN5C[C@H](F)C6)nc4c3F)c12` [Example 68, 1-(7-(8-ethynyl-7-fluoro-3-hydroxynaphthalen-1-yl)-8-fluoro-2-(((2R, 7aS)-2-fluorotetrahydro-1H-pyrrolizin-7a(5H)-yl)methoxy)pyrido[4,3-d]pyrimidin-4-yl)piperidine-4-carbonitrile], for which the IC50 is 1290 nM. Turning to `C#Cc1cccc2cc(O)cc(-c3ncc4c(N5CC6CCCNC6C5)nc(OC[C@@]56CCCN5C[C@H](F)C6)nc4c3F)c12` (stereo partly drawn) [Example 53, 5-ethynyl-4-(8-fluoro-2-(((2R,7aS)-2-fluorotetrahydro-1H-pyrrolizin-7a(5H)-yl)methoxy)-4-(octahydro-6H-pyrrolo[3,4-b]pyridin-6-yl)pyrido[4,3-d]pyrimidin-7-yl)naphthalen-2-ol], the IC50 is more than 2500 nM. In the case of `CCC1CCCc2cc(O)cc(-c3ccc4c(N5C[C@H]6CC[C@@H](C5)N6)nc(OC[C@@]56CCCN5C[C@H](F)C6)nc4c3F)c21` (stereo partly drawn) [Example 289, 4-(4-((1R,5S)-3,8-diazabicyclo[3.2.1]octan-3-yl)-8-fluoro-2-(((2R,7aS)-2-fluorotetrahydro-1H-pyrrolizin-7a(5H)-yl)methoxy)quinazolin-7-yl)-5-ethyl-5,6,7,8-tetrahydronaphthalen-2-ol], the IC50 is 15 nM. `Oc1cc(-c2ncc3c(N4C[C@H]5CC[C@@H](C4)C5(F)F)nc(OC[C@@]45CCCN4C[C@H](F)C5)nc3c2F)c2c(F)c(F)ccc2c1` [Example 33, 4-(4-((1R,5S)-8,8-difluoro-3-azabicyclo [3.2.1]octan-3-yl)-8-fluoro-2-(((2R,7aS)-2-fluorotetrahydro-1H-pyrrolizin-7a(5H)-yl)methoxy)pyrido[4,3-d]pyrimidin-7-yl)-5,6-difluoronaphthalen-2-ol]: the IC50 is more than 2500 nM. On the same count and under the same terms, then `CCc1c(F)ccc2cc(O)cc(-c3ccc4c(N5C[C@H]6CC[C@@H](C5)N6)nc(OCC5(CN6CCCC6)CC5)nc4c3F)c12` [Example 100, 4-(4-((1R,5S)-3,8-diazabicyclo[3.2.1]octan-3-yl)-8-fluoro-2-((1-(pyrrolidin-1-ylmethyl)cyclopropyl)methoxy)quinazolin-7-yl)-5-ethyl-6-fluoronaphthalen-2-ol], with 21 nM; and `Oc1cc2c(c(-c3c4c(c5c(N6C[C@H]7CC[C@@H](C6)N7)nc(OC[C@@]67CCCN6C[C@H](F)C7)nc5c3F)OCO4)c1)CCCC2` [Example 390, 4-(9-((1R,5S)-3,8-diazabicyclo[3.2.1]octan-3-yl)-5-fluoro-7-(((2R,7aS)-2-fluorotetrahydro-1H-pyrrolizin-7a(5H)-yl)methoxy)-[1,3]dioxolo[4,5-f]quinazolin-4-yl)-5,6,7,8-tetrahydronaphthalen-2-ol], with 150 nM; and `CCc1cccc2cc(O)cc(-c3ccc4c(N5C[C@H]6CC[C@@H](C5)N6)nc(OCC5(CN6CCCC6)CC5)nc4c3F)c12` [Example 104, 4-(4-((1R,5S)-3,8-diazabicyclo[3.2.1]octan-3-yl)-8-fluoro-2-((1-(pyrrolidin-1-ylmethyl)cyclopropyl)methoxy)quinazolin-7-yl)-5-ethylnaphthalen-2-ol], with 57 nM.

By IC50 is commonly meant the concentration needed to halve the response being measured.
